From ChEMBL document CHEMBL1129601, “Inhibitors of acyl-CoA: cholesterol O-acyl transferase (ACAT) as hypocholesterolemic agents. CI-1011: an acyl sulfamate with unique cholesterol-lowering activity in animals fed noncholesterol-supplemented diets” (J Med Chem, 1996) come the findings set out here.

What all share (type): ADME
Data set [1] in a line: Solution Degradation Studies measured by compound unchanged at pH 0.4=50% 1 M HCl/50% acetonitrile at 0 hours. The note with it: 50% 1 M HCl / 50% acetonitrile solution, read-out: Unchanged.
Data set [2] is described as follows: Solution Degradation Studies measured by compound unchanged at pH 0.4=50% 1 M HCl/50% acetonitrile at 24 hours. The settings on record: 50% 1 M HCl / 50% acetonitrile solution, read-out: Unchanged.
Data set [3] can be described thus: Solution Degradation Studies measured by compound unchanged at pH 0.4=50% 1 M HCl/50% acetonitrile at 4 hours. The settings on record: 50% 1 M HCl / 50% acetonitrile solution, read-out: Unchanged.
A short description of data set [4]: Solution Degradation Studies measured by compound unchanged at pH 0.4=50% 1 M HCl/50% acetonitrile at 8 hours. The note with it: 50% 1 M HCl / 50% acetonitrile solution, read-out: Unchanged.
Data set [5] can be described thus: Solution Degradation Studies measured by compound unchanged at pH 6.4 = 50% water / 50% acetonitrile at 0 hours. The settings on record: 50% water / 50% acetonitrile solution, read-out: Unchanged.
A short description of data set [6]: Solution Degradation Studies measured by compound unchanged at pH 6.4 = 50% water / 50% acetonitrile at 2 hours. The settings on record: 50% water / 50% acetonitrile solution, read-out: Unchanged.
Data set [7] in a line: Solution Degradation Studies measured by compound unchanged at pH 6.4 = 50% water / 50% acetonitrile at 24 hours. The note with it: 50% water / 50% acetonitrile solution, read-out: Unchanged.
The nature of data set [8]: Solution Degradation Studies measured by compound unchanged at pH 6.4 = 50% water / 50% acetonitrile at 4 hours. The settings on record: 50% water / 50% acetonitrile solution, read-out: Unchanged.
Data set [9] in a line: Solution Degradation Studies measured by compound unchanged at pH 6.4 = 50% water / 50% acetonitrile at 8 hours. The note with it: 50% water / 50% acetonitrile solution, read-out: Unchanged.
Data set [10] can be described thus: Solution Degradation Studies measured by compound unchanged at pH 0.4=50% 1 M HCl/50% acetonitrile at 2 hours. The note with it: 50% 1 M HCl / 50% acetonitrile solution, read-out: Unchanged.
Data set [11] in a line: Solution Degradation Studies measured by compound unchanged at pH 0.4=50%1 M HCl/50% acetonitrile at 0 hours. The settings on record: 50% 1 M HCl / 50% acetonitrile solution, read-out: Unchanged.
Data set [12] in a line: Solution Degradation Studies measured by compound unchanged at pH 0.4=50%1 M HCl/50% acetonitrile at 2 hours. The note with it: 50% 1 M HCl / 50% acetonitrile solution, read-out: Unchanged.
Data set [13] can be described thus: Solution Degradation Studies measured by compound unchanged at pH 0.4=50%1 M HCl/50% acetonitrile at 24 hours. The note with it: 50% 1 M HCl / 50% acetonitrile solution, read-out: Unchanged.
A short description of data set [14]: Solution Degradation Studies measured by compound unchanged at pH 0.4=50%1 M HCl/50% acetonitrile at 4 hours. The settings on record: 50% 1 M HCl / 50% acetonitrile solution, read-out: Unchanged.
Data set [15] is described as follows: Solution Degradation Studies measured by compound unchanged at pH 0.4=50%1 M HCl/50% acetonitrile at 8 hours. The settings on record: 50% 1 M HCl / 50% acetonitrile solution, read-out: Unchanged.

For `CC(C)c1cccc(C(C)C)c1OS(=O)(=O)NC(=O)Oc1c(C(C)(C)C)cccc1C(C)(C)C`, the remaining at 0 h in data set [1] and in data set [5] was 100% in each case. Moreover, the remaining at 24 h was 97% in data set [2] and 98% in data set [7]. Further, the remaining at 4 h in [3] and in data set [8] was 99% each time. The remaining at 8 h in data set [4] was 98%; in [9] it was 99%. The remaining at 2 h in data set [6] and in data set [10] was 100% in each case.
As to `CC(C)c1cccc(C(C)C)c1OC(=O)NS(=O)(=O)Oc1c(C(C)C)cccc1C(C)C` [listing 1 of 2 here], the remaining at 0 h in data set [11] and in data set [5] was 100% throughout. For the same molecule, the values for the remaining at 2 h in data set [12] and in data set [6] were 92% and 100%, respectively. For the same molecule, the remaining at 24 h in data set [13] was 25%; in [7], 100%. Further, the remaining at 4 h in [14] was found to be 83%; in data set [8], 100%. Also, the results for the remaining at 8 h in [15] and in data set [9] were 68% and 100%, respectively.
On to `Cc1cccc(C)c1OC(=O)NS(=O)(=O)Oc1c(C(C)C)cccc1C(C)C`, for which the remaining at 0 h in [1] is 93%; in data set [5] it was 94%. Moreover, the values for the remaining at 24 h in [2] and in [7] were 5% and 20%, respectively. Moreover, the remaining at 4 h in data set [3] was 57%; in data set [8], 65%. The remaining at 8 h in [4] was found to be 37%; in data set [9] it was 48%. The remaining at 2 h in data set [6] came to 79%; in [10] it was 71%.
As for `CC(C)c1cccc(C(C)C)c1OC(=O)NS(=O)(=O)Oc1c(C(C)C)cccc1C(C)C` [listing 2 of 2 here], the remaining at 0 h in data set [1] and in [5] was 95% in each case. Further, the results for the remaining at 24 h in data set [2] and in [7] were 23% and 37%, respectively. Further, the remaining at 4 h in data set [3] was 80%; in [8] it was 85%. The remaining at 8 h in data set [4] was determined as 66%; in data set [9], 74%. The remaining at 2 h in data set [6] was 87%; in [10], 88%.
